Experimental data as given in ChEMBL document CHEMBL3861981 (J Med Chem, 2016).

Assays:
[1] = Half life in human liver microsomes; type: ADME
[2] = Inhibition of recombinant full length HCV genotype 2b HC-J8 NS3/4A protease preincubated for 30 mins followed by substrate addition measured by FRET assay; parameters: species or system Hepatitis C virus subtype 2b
[3] = Half life in cynomolgus monkey plasma at 3 mg/kg, iv administered as 5 mins infusion by LC/MS/MS analysis; type: ADME, organism-based, Macaca fascicularis
[4] = Clearance in cynomolgus monkey plasma at 3 mg/kg, iv administered as 5 mins infusion measured up to 24 hrs post dose by LC/MS/MS analysis; type: ADME, organism-based, Macaca fascicularis
[5] = Cardiotoxicity in rabbit heart assessed as change in sinoatrial node recovery time at 10 uM perfused for 60 mins measured every 10 mins during perfusion by electrophysiology method relative to control; type: toxicity, tissue-based, Oryctolagus cuniculus; conditions: 1 h
[6] = Plasma concentration in rabbit at 30 mg/kg, iv administered as 10 mins infusion measured after 60 mins; type: ADME, organism-based, Oryctolagus cuniculus
[7] = Cytotoxicity against human HEK293T cells assessed as decrease in cell viability
[8] = Cardiotoxicity in anesthetized rabbit assessed as effect on PR interval at 30 mg/kg, iv administered as 10 mins infusion measured up to 60 mins post dose by electrophysiology assay; type: toxicity, organism-based, Oryctolagus cuniculus; conditions: in vivo
[9] = Cardiotoxicity in dog assessed as prolongation of QTcf interval at 30 to 100 mg/kg administered as single dose by electrophysiology assay; type: toxicity, organism-based, Canis lupus familiaris; conditions: in vivo
[10] = Cardiotoxicity in dog assessed as effect on QRS interval at 30 to 100 mg/kg administered as single dose by electrophysiology assay; type: toxicity, organism-based, Canis lupus familiaris; conditions: in vivo
[11] = Cardiotoxicity in dog assessed as effect on PR interval at 30 to 100 mg/kg administered as single dose by electrophysiology assay; type: toxicity, organism-based, Canis lupus familiaris; conditions: in vivo
[12] = Inhibition of recombinant full length HCV genotype 1a H77 NS3/4A protease preincubated for 30 mins followed by substrate addition measured by FRET assay; parameters: species or system Hepatitis C virus (isolate H77)
[13] = Inhibition of recombinant full length HCV genotype 4a ED43 NS3/4A protease preincubated for 30 mins followed by substrate addition measured by FRET assay; parameters: species or system Hepatitis C virus ED43
Hepatitis C virus = experiment: Antiviral activity against HCV genotype 2a JHF-1 in HCV replicon cells assessed as reduction in viral RNA replication by luciferase reporter gene assay; conditions: genotype 2a JFH-1

half-life [1]: 1.08 h
IC50 [2]: 220 nM
half-life [3]: 6.1 h
clearance [4]: 9.4 mL/min/kg
concentration at 1 h [6]: 253 µM
IC50 [12]: 1.5 nM
IC50 [13]: 6 nM
EC50 (Hepatitis C virus): 136 nM
SMILES: COc1cnc(O[C@@H]2C[C@@H](C(=O)N[C@]3(C(=O)NS(=O)(=O)C4CC4)C[C@H]3C3CC3)N(C(=O)[C@@H](NC(=O)O[C@H](C)C(F)(F)F)C3CCCCC3)C2)c2cc(Cl)ccc12
Activity [5]: 22%
CC50 [7]: 8000 to 14000 nM
Activity [8]: Non-Toxic
Activity [9]: Non-Toxic
Activity [10]: Non-Toxic
Activity [11]: Non-Toxic
